Measured values published in patent publication US10206394B2, “Herbicidal compounds” (Syngenta Participations AG, priority 2014, dated 2019).
Read-outs that look alike come from different tables or passages of the source.

Key:
Assay type in all cases: in vivo
[1] = system: Winter Wheat variety 'Hereward'; test: Glasshouse assay for crop safety, post-emergence, +/- safener cloquintocet-mexyl (CQC), percentage phytotoxicity; conditions: 250 g/ha, evaluated after 13 days, 100=total damage, 0=no damage; for Post-emergence Crop Selectivity, percentage phytotoxicity, Wheat +CQC: with safener cloquintocet-mexyl (CQC) seed treatment 0.5 g/kg seed; for Post-emergence Crop Selectivity, percentage phytotoxicity, Wheat − CQC: without safener cloquintocet-mexyl (CQC)
Description: Test—Glasshouse Assay for Crop Safety.
Seeds of the Winter Wheat variety ‘Hereward’ were seed treated with a wettable powder formulation of the cereal herbicide safener, cloquintocet mexyl, at a rate of 0.5 grams per kilogram of dry seed prior to the initiation of glasshouse testing. Three seeds were sown per 1.5 inch plastic pot into a sandy loam soil at a depth of 1 cm, 8 days prior to application of the test compounds and was watered and grown under controlled conditions in a glasshouse (at 24/16° C., day/night; 14 hours light; 65% humidity). The plants were sprayed Post-emergence with an aqueous spray solution derived from the formulation of the technical active ingredient in acetone/water (50:50) solution containing 0.5% Tween 20 (polyoxyethelyene sorbitan monolaurate, CAS RN 9005-64-5).
The test plants were then grown in a glasshouse under controlled conditions (at 24/16° C., day/night; 14 hours light; 65% humidity) and watered twice daily. After 13 days for pre and post-emergence, the test was evaluated (100=total damage to plant; 0=no damage to plant).

Lolium perenne (LOLPE) = test: Glasshouse assay for herbicidal activity (pre- and post-emergence), percentage phytotoxicity; conditions: Lolium perenne, Rate 250 g/ha, 100%=total damage, 0%=no damage
In short: (§1)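 Visually rated damage, 0–100%. PRE spray 1 d after sowing, scored 20 DAA; POST spray ~12 d, scored 15 DAA. Glasshouse at 65% humidity, 16 h day.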

[2] = system: Alopecurus myosuroides (ALOMY); test: as above; conditions: Alopecurus myosuroides, Rate 250 g/ha, 100%=total damage, 0%=no damage
In short: as §1

[3] = system: Echinochloa crus-galli (ECHCG); test: as above; conditions: Echinochloa crus-galli, Rate 250 g/ha, 100%=total damage, 0%=no damage
In short: as §1

Avena fatua (AVEFA) = test: as above; conditions: Avena fatua, Rate 250 g/ha, 100%=total damage, 0%=no damage
In short: as §1

[4] = post-emergence, 360 h, post-emergence, assessed visually 15 DAA, read-out: Post-emergence herbicidal activity (percentage phytotoxicity) LOLPE POST
[5] = pre-emergence, 480 h, pre-emergence, assessed visually 20 DAA, read-out: Pre-emergence herbicidal activity (percentage phytotoxicity) LOLPE PRE
[6] = post-emergence, 360 h, post-emergence, assessed visually 15 DAA, read-out: Post-emergence herbicidal activity (percentage phytotoxicity) ALOMY POST
[7] = pre-emergence, 480 h, pre-emergence, assessed visually 20 DAA, read-out: Pre-emergence herbicidal activity (percentage phytotoxicity) ALOMY PRE
[8] = post-emergence, 360 h, post-emergence, assessed visually 15 DAA, read-out: Post-emergence herbicidal activity (percentage phytotoxicity) ECHCG POST
[9] = pre-emergence, 480 h, pre-emergence, assessed visually 20 DAA, read-out: Pre-emergence herbicidal activity (percentage phytotoxicity) ECHCG PRE
[10] = post-emergence, 360 h, post-emergence, assessed visually 15 DAA, read-out: Post-emergence herbicidal activity (percentage phytotoxicity) AVEFA POST
[11] = pre-emergence, 480 h, pre-emergence, assessed visually 20 DAA, read-out: Pre-emergence herbicidal activity (percentage phytotoxicity) AVEFA PRE

Row | SMILES | Post-emergence Crop Selectivity, percentage phytotoxicity, Wheat +CQC [1] [%] | Post-emergence Crop Selectivity, percentage phytotoxicity, Wheat − CQC [1] [%] | pest or weed control at 250 g/ha (Lolium perenne (LOLPE); [4]) [%] | pest or weed control at 250 g/ha (Lolium perenne (LOLPE); [5]) [%] | pest or weed control at 250 g/ha [2, 6] [%] | pest or weed control at 250 g/ha [2, 7] [%] | pest or weed control at 250 g/ha [3, 8] [%] | pest or weed control at 250 g/ha [3, 9] [%] | pest or weed control at 250 g/ha (Avena fatua (AVEFA); [10]) [%] | pest or weed control at 250 g/ha (Avena fatua (AVEFA); [11]) [%]
1 | Cc1cc(-n2cc(Cl)cn2)cc(C)c1C1C(=O)CC(CC(=O)NC(C)(C)C)C1=O (stereo not shown) [Compound A67, N-tert-butyl-2-[3-[4-(4-chloropyrazol-1-yl)-2,6-dimethyl-phenyl]-2,4-dioxo-cyclopentyl]acetamide] | 0 | 70 | 70 | 90 | 80 | 100 | 100 | 90 | 80 | 90
2 | Cc1cc(-n2cc(Cl)cn2)cc(C)c1C1C(=O)CC(CC(=O)NC2CCCC2)C1=O (stereo not shown) [Compound A70] | 20 | 70 | 70 | 70 | 90 | 70 | 90 | 100 | 70 | 70
3 | Cc1cc(-n2cc(Cl)cn2)cc(C)c1C1C(=O)CC(CC(=O)NC2(c3ccccn3)CC2)C1=O (stereo not shown) [Compound A73] | 20 | 80 | 40 | 30 | 70 | 70 | 90 | 90 | 80 | 10
4 | Cc1cc(-c2ccc(F)cn2)cc(C)c1C1C(=O)CC(CC(=O)NC(C)(C)C)C1=O (stereo not shown) [Compound A80] | 20 | 70 | 100 | 100 | 100 | 100 | 100 | 100 | 100 | 90
5 | Cc1cc(-c2ncc(F)cc2F)cc(C)c1C1C(=O)CC(CC(=O)NC(C)(C)C)C1=O (stereo not shown) [Compound A85] | 10 | 80 | 90 | 100 | 100 | 100 | 100 | 90 | 100 | 80
6 | Cc1cc(-c2ncc(F)cn2)cc(C)c1C1C(=O)CC(CC(=O)NCc2cccc(Cl)c2)C1=O (stereo not shown) [Compound A138] | 40 | 70 | 100 | 100 | 90 | 90 | 100 | 100 | 100 | 100
7 | Cc1cc(-c2cncnc2)cc(C)c1C1C(=O)CC(CC(=O)NCc2cccc(Cl)c2)C1=O (stereo not shown) [Compound A142] | 50 | 70 | 20 | 20 |  | 0 | 60 | 30 |  | 0
8 | Cc1cc(-c2ncc(F)cn2)cc(C)c1C1C(=O)CC(CC(=O)NCc2cccc(C(F)(F)F)c2)C1=O (stereo not shown) [Compound A145] | 30 | 60 | 90 | 100 | 100 | 100 | 100 | 100 | 100 | 100
9 | Cc1cc(-c2ccc(Cl)cn2)cc(C)c1C1C(=O)CC(CC(=O)NCc2cccc(C(F)(F)F)c2)C1=O (stereo not shown) [Compound A146] | 50 | 80 | 100 | 90 | 100 | 80 | 100 | 90 | 100 | 90
